Laboratory results from paper PMC11705089 (Nucleic Acids Research, 2025).
Substitutions are numbered along the chain they refer to.

Key:
[1] = biological target: DgoR-6XHis (wild-type DgoR, transcriptional repressor of D-galactonate metabolism in Escherichia coli) (Escherichia coli) (UniProt P31460); experiment: SEC
[2] = biological target: T1, DgoR (WT DgoR-6XHis) (Escherichia coli, UniProt P31460, A97V); experiment: label-free microscale thermophoresis; type: binding
T1 sequence (P31460 1-229 A97V): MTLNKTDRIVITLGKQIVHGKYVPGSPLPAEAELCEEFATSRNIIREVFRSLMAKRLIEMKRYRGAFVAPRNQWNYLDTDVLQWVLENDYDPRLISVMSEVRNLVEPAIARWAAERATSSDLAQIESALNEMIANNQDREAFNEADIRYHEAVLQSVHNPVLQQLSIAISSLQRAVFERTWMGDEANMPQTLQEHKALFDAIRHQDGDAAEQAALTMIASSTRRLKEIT

[3] = biological target: T2, DgoR (WT DgoR-6XHis) (Escherichia coli, UniProt P31460, S171L); experiment: label-free microscale thermophoresis; type: binding
T2 sequence (P31460 1-229 S171L): T1 sequence (P31460 1-229 A97V) with V97A, S171L

[4] = biological target: T3, DgoR (WT DgoR-6XHis) (Escherichia coli, UniProt P31460); experiment: label-free microscale thermophoresis; type: binding
T3 sequence (P31460 1-229): T1 sequence (P31460 1-229 A97V) with V97A

[5] = biological target: T4, DgoR (WT DgoR-6XHis) (Escherichia coli, UniProt P31460, M188I); experiment: label-free microscale thermophoresis; type: binding
T4 sequence (P31460 1-229 M188I): T1 sequence (P31460 1-229 A97V) with V97A, M188I

Row | Molecule | stoichiometry N [1] | Kd [2] [µM] | Kd [3] [µM] | Kd [4] [µM] | Kd [5] [µM]
1 | DgoR-6XHis (wild-type DgoR, transcriptional repressor of D-galactonate metabolism in Escherichia coli) (from UniProt P31460 1-229) (natural protein) | 2 | – | – | – | –
2 | O=C(O)[C@H](O)[C@@H](O)[C@@H](O)[C@H](O)CO [D-galactonate] | – | 3.3 ± 0.3 | 20.1 ± 0.6 | 8.4 ± 1.3 | 11.3 ± 0.9
